Converted amounts (≈) assume the structure as drawn. Where two headings read alike, the source gives them in different places.
Assays:
[1] = tested on: S. aureus ATCC 13709; test: MIC, S. aureus ATCC 13709 (Alamar Blue broth microdilution); assay type: cell-based; settings: for MIC: Staphylococcus aureus, ATCC13709, S. aureus
[2] = tested on: E. coli ATCC 25922; test: MIC, E. coli ATCC 25922; assay type: cell-based; settings: for MIC: Escherichia coli, ATCC25922, E. coli
[3] = Alamar Blue read after overnight incubation at 35° C.
[4] = S. aureus, Alamar Blue read after overnight incubation at 35° C.
[5] = E. coli, Alamar Blue read after overnight incubation at 35° C.

| Structure (SMILES) | MIC [1, 3] | MIC [2, 3] | MIC Sa [1, 4] | MIC Ec [2, 5] | also measured |
| --- | --- | --- | --- | --- | --- |
| CNc1cc(F)cc2c1[nH]c1nc(Oc3ccc4c(c3)C(=O)NCC4)nc(N3CC4C[C@@H](N)C4C3)c12 (stereo partly shown) [4.302] | ≤ 0.5 µg/mL | 2 µg/mL (≈ 4.1 µM) |  |  |  |
| CNc1cccc2c1[nH]c1nc(Sc3cncc(S(=O)(=O)NC)c3)nc(N3CC4C(N)C4C3)c12 (stereo not shown) [1.36] | 2 µg/mL (≈ 4.03 µM) | 4 µg/mL (≈ 8.05 µM) |  |  |  |
| CNc1cc(F)cc2c1[nH]c1nc(Oc3cnc(N4CC(S(=O)(=O)CC5CC5)C4)nc3)nc(N3C[C@H](N)C4(CC4)C3)c12 [4.338] |  |  | ≤0.5 µg/mL | 2 µg/mL (≈ 3.37 µM) |  |
| CNc1cc(F)cc2c1[nH]c1nc(Oc3cnc(C)nc3)nc(N3CC(NC(=O)C(C)N)C4(CC4)C3)c12 (stereo not shown) [4.142] |  |  | ≤0.5 µg/mL | 1 µg/mL (≈ 1.98 µM) |  |
| CCc1cc(F)cc2c1[nH]c1nc(Oc3cncnc3)nc(N3CC4C(N)C4C3)c12 (stereo not shown) [2.2] | 2 µg/mL (≈ 4.93 µM) | 4 µg/mL (≈ 9.87 µM) |  |  |  |
| CNc1cc(F)cc2c1[nH]c1nc(Oc3cnc(C4CC4)nc3)nc(N3CC4CCC3C4N)c12 (stereo not shown) [4.256] | ≤ 0.5 µg/mL | ≤ 0.5 µg/mL |  |  |  |
| CNc1cc(F)cc2c1[nH]c1nc(Oc3cncnc3)nc(N3CCC(N)C3)c12 (stereo not shown) [4.007] |  |  | ≤0.5 µg/mL | ≤0.5 µg/mL |  |
| CNc1cc(F)cc2c1[nH]c1nc(Oc3cnc(N)nc3)nc(N3CC4CC4(CN)C3)c12 (stereo not shown) [4.185] | ≤ 0.5 µg/mL | 8 µg/mL (≈ 18.4 µM) |  |  |  |
| CNc1cc(F)cc2c1[nH]c1nc(Oc3cnc(C)nc3)nc(-c3cccc(CN)c3F)c12 [4.422] | 4 µg/mL (≈ 8.94 µM) | 16 µg/mL (≈ 35.8 µM) |  |  |  |
| CNc1cccc2c1[nH]c1nc(Oc3cnc(OC)c(OC)c3)nc(N3CC[C@@H](N)C3)c12 [3.2] | 4 µg/mL (≈ 9.19 µM) | 16 µg/mL (≈ 36.7 µM) |  |  |  |
| CNc1cc(F)cc2c1[nH]c1nc(Oc3cncc(F)c3)nc(N3CC4C(N)C4C3)c12 (stereo not shown) [4.055] | ≤ 0.5 µg/mL | ≤ 0.5 µg/mL |  |  |  |
| CNc1cccc2c1[nH]c1nc(Sc3cnc4ccc[n+]([O-])c4c3)nc(N3CC(CNC(=O)c4cn(C)nc4C(F)(F)F)C3)c12 [1.21] | ≤ 0.5 µg/mL | > 64 µg/mL |  |  |  |
| CNc1cc(F)cc2c1[nH]c1nc(Oc3cncnc3)nc(N3C[C@H]4C[C@@H]3C[C@H]4N)c12 [4.034] | ≤ 0.5 µg/mL | ≤ 0.5 µg/mL |  |  |  |
| CNc1cc(F)cc2c1[nH]c1nc(Oc3cnc(C)nc3)nc(N3CC4CC(N)C4C3)c12 (stereo not shown) [4.111] |  |  | ≤0.5 µg/mL | ≤0.5 µg/mL |  |
| CNc1cccc2c1[nH]c1nc(Sc3cnc4ccc[n+]([O-])c4c3)nc(N3CC[C@H](N)C3)c12 [1.14] | ≤ 0.5 µg/mL | 1 µg/mL (≈ 2.18 µM) |  |  |  |
| CNc1cc(F)cc2c1[nH]c1nc(Oc3cnc(N)nc3)nc(N3CC(N)C4(CC4)C3)c12 (stereo not shown) [4.177] |  |  | ≤0.5 µg/mL | ≤0.5 µg/mL |  |

| Structure (SMILES) | MIC [1, 3] | MIC [2, 3] | MIC Sa [1, 4] | MIC Ec [2, 5] | also measured |
| --- | --- | --- | --- | --- | --- |
| CNc1ncc(Oc2nc(N3CCC(N)C3)c3c(n2)[nH]c2c(NC)cc(F)cc23)cn1 (stereo not shown) [4.219] |  |  | ≤0.5 µg/mL | ≤0.5 µg/mL |  |
| CNc1cc(F)cc2c1[nH]c1nc(Oc3cnc(C)nc3)nc(N3CC4(CCCNC4)C3)c12 [4.149] |  |  | ≤0.5 µg/mL | 2 µg/mL (≈ 4.46 µM) |  |
| CNc1cc(F)cc2c1[nH]c1nc(Oc3cnc(C)nc3)nc(N3CC4CCNC4C3)c12 (stereo not shown) [4.094] |  |  | ≤0.5 µg/mL | ≤0.5 µg/mL |  |
| CNc1cc(F)cc2c1[nH]c1nc(Oc3cnc(C(C)(C)C)nc3)nc(N3CC4C(N)C4C3)c12 (stereo not shown) [4.314] | ≤ 0.5 µg/mL | ≤ 0.5 µg/mL |  |  |  |
| CNc1cc(F)cc2c1[nH]c1nc(Oc3ccc4c(c3)C(=O)NCC4)nc(N3CC4C(N)C4C3)c12 (stereo not shown) [4.301] |  |  | ≤0.5 µg/mL | 1 µg/mL (≈ 2.11 µM) |  |
| CNc1cc(Cl)cc2c1[nH]c1nc(Oc3cnc(N)nc3)nc(N3CC4CC(N)C4C3)c12 (stereo not shown) [6.16] |  |  |  |  | MIC Sa [1]: ≤0.5 µg/mL; MIC Ec [2]: 1 µg/mL (≈ 2.21 µM) |
| CNc1cc(F)cc2c1[nH]c1nc(Sc3cnc4ccc[n+]([O-])c4c3)nc(N3CC4C(N)C4C3)c12 (stereo not shown) [1.50] | ≤ 0.5 µg/mL | ≤ 0.5 µg/mL |  |  |  |
| CNc1cc(F)cc2c1[nH]c1nc(Oc3cncc(-c4cn[nH]c4)c3)nc(N3CC4C(N)C4C3)c12 (stereo not shown) [4.206] | ≤ 0.5 µg/mL | 4 µg/mL (≈ 8.48 µM) |  |  |  |
| CNc1cc(F)cc2c1[nH]c1nc(Oc3cnc(C)nc3)nc(N3CC(N)C(C(=O)N4CCOCC4)C3)c12 (stereo not shown) [4.438] | 1 µg/mL (≈ 1.92 µM) | 16 µg/mL (≈ 30.7 µM) |  |  |  |
| CNc1cccc2c1[nH]c1nc(Oc3cncc(C#N)c3)nc(N3C[C@@H](N)C4(CC4)C3)c12 [3.44] | 8 µg/mL (≈ 18.8 µM) | 16 µg/mL (≈ 37.5 µM) |  |  |  |
| CNc1cc(F)cc2c1[nH]c1nc(Oc3cncnc3)nc(N3CC4C(N)C4C3)c12 (stereo not shown) [4.001] |  |  | ≤0.5 µg/mL | ≤0.5 µg/mL |  |
| CNc1cc(F)cc2c1[nH]c1nc(Oc3cnc(C)nc3)nc(N3CCNCC34CC4)c12 [4.133] |  |  | >16 µg/mL | >16 µg/mL |  |
| CNc1cc(F)cc2c1[nH]c1nc(Oc3cnc(CO)nc3)nc(N3CC4CC3C[C@@H]4N)c12 (stereo partly shown) [4.390] | ≤ 0.5 µg/mL | ≤ 0.5 µg/mL |  |  |  |
| CNc1cc(F)cc2c1[nH]c1nc(Oc3cnc(CC(=O)OC)nc3)nc(N3CC4C[C@@H](N)C4C3)c12 (stereo partly shown) [4.367] | ≤ 0.5 µg/mL | ≤ 0.5 µg/mL |  |  |  |
| CNc1cccc2c1[nH]c1nc(Oc3cnc(C)nc3)nc(N3CC4C(N)C4C3)c12 (stereo not shown) [3.29] | ≤ 0.5 µg/mL | ≤ 0.5 µg/mL |  |  |  |
| CNc1cc(F)cc2c1[nH]c1nc(Oc3cnc(C)nc3)nc(N3CC4NCCOC4C3)c12 (stereo not shown) [4.114] |  |  | ≤0.5 µg/mL | 2 µg/mL (≈ 4.44 µM) |  |

— US10858360B2, “Tricyclic gyrase inhibitors” (priority 2011, dated 2020)
